Results published in patent US20260306429A1, “COMPOSITION FOR REDUCING METHANE PRODUCTION AND IMPROVING NITROGEN UTILIZATION EFFICIENCY OF RUMINANT ANIMALS COMPRISING HALOACETAMIDE AS ACTIVE INGREDIENT” (CHUNGANG UNIVERSITY INDUSTRY ACADEMIC COOPERATION FOUNDATION, priority 2024, published 2026).

Assays:
Ruminococcus albus = assay: qPCR absolute quantification of Ruminococcus albus after in vitro rumen incubation; assay type: cell-based; settings: 0.2 mmol/L, 24 h
Description: (§1) Rumen fluid was sampled from Hanwoo cows at the Nonghyup Research Farm in Anseong, Gyeonggi Province, and mixed with buffer at a ratio of 1:2 within 1 hour of sampling. Oat hay was used as the forage, and pelleted feed for the middle fattening period was used as the concentrate. After grinding, the forage and concentrate were mixed at a ratio of 1:1 after passing through a 1-mm screen. 50 ml of culture medium was dispensed into 0.5 g of dry matter, and the control group and the five experimental groups (acrylamide, chloroacetamide, glycolamide, iodoacetamide, and propionamide) were each incubated for 24 hours with five replicates. The control group was incubated in 50 mL of culture medium, whereas the experimental groups were incubated in 49.9 mL of culture medium plus 0.1 mL of deionized water. For the five experimental groups, the supplementation level of each amide was set to 0.2 mmol/L (final concentration), and the amounts added were 1.4216 mg/g for acrylamide, 1.8702 mg/g for 2-chloroacetamide, 1.4618 mg/g for propionamide, 1.5014 mg/g for glycolamide, and 3.6992 mg/g for iodoacetamide.
(§2) Gas pressure was measured at 0, 3, 6, 12, and 24 hours (gas collection intervals), and the gas released during each measurement was collected to determine the total gas production and methane production up to the final 24 hours. After completing the 24-hour incubation, pH, ammonia nitrogen (NH3—N), dry matter digestibility, neutral detergent fiber digestibility, volatile fatty acids (VFA), and the microbiome were analyzed.
(§3) Metagenomic DNA was extracted using the RBB+C method, followed by qPCR analysis and microbiome analysis. Microbial functions were predicted using PICRUSt2. Taxonomic drivers of differentially enriched MetaCyc pathways were identified using Fish Taco (Functional Shifts' Taxonomic Contributor).
(§4) Data conforming to normal distribution and homogeneity of variance were analyzed using the GLIMMIX procedure of SAS and Tukey's HSD test. […] Differences in the overall bacteriota and their functional profiles were analyzed using PERMANOVA. Differentially abundant microbial biomarkers were identified using multivariable association analysis with the MaAsLin2 R package, based on relatively abundant bacterial taxa and predicted microbial functions.
(§5) For the control group and the five experimental groups (acrylamide, chloroacetamide, glycolamide, iodoacetamide, and propionamide), the effects of the amide compounds on the absolute quantification of total bacteria, methanogens, protozoa, and specific cellulolytic bacterial species (Fibrobacter succinogenes, Ruminococcus flavefaciens, Ruminococcus albus, and Prevotella ruminicola) are presented in Table 3 below as quantitative real-time PCR data.

Prevotella ruminicola = assay: qPCR absolute quantification of Prevotella ruminicola after in vitro rumen incubation; assay type: cell-based; settings: 0.2 mmol/L, 24 h
Description: as §1, §2, §3, §4, §5

[1] = system: Ruminococcus flavefaciens; assay: qPCR absolute quantification of Ruminococcus flavefaciens after in vitro rumen incubation; assay type: cell-based; settings: 0.2 mmol/L, 24 h
Description: as §1, §2, §3, §4, §5

rumen microbiome = assay: Alpha-diversity measurements of the rumen microbiome; assay type: cell-based, rumen fluid of Hanwoo cows; settings: 0.2 mmol/L, 24 h
Description: as §1, §2, §3, §4
The alpha-diversity measurements for the control group and the five experimental groups (acrylamide, chloroacetamide, glycolamide, iodoacetamide, and propionamide) are presented in Table 4 below.

Fibrobacter succinogenes = assay: qPCR absolute quantification of Fibrobacter succinogenes after in vitro rumen incubation; assay type: cell-based; settings: 0.2 mmol/L, 24 h
Description: as §1, §2, §3, §4, §5

Total protozoa = assay: qPCR absolute quantification of protozoa after in vitro rumen incubation; assay type: cell-based, rumen fluid of Hanwoo cows; settings: 0.2 mmol/L, 24 h
Description: as §1, §2, §3, §4, §5

rumen fluid = assay: In vitro incubation of rumen fluid: digestibility, fermentation characteristics, gas and methane production, VFA; assay type: cell-based, Hanwoo cows; settings: 0.2 mmol/L; for A:P ratio (acetate:propionate ratio) / DMD (dry matter digestibility) / NDFD (neutral detergent fiber digestibility) / NH3—N (ammonia nitrogen) / pH / Acetate / Butyrate / Isobutyrate / Isovalerate / Propionate / Valerate / Total VFA (total volatile fatty acids) / methane-reducing effects: 24 h; for CH4 (methane production per gram of degraded dry matter) / CH4 (methane production) / TGP (total gas production): up to 24 h; for methane-reducing effects: in words, from Table 1
Description: as §1, §2, §4

Total methanogen = assay: qPCR absolute quantification of methanogens after in vitro rumen incubation; assay type: cell-based, rumen fluid of Hanwoo cows; settings: 0.2 mmol/L, 24 h
Description: as §1, §2, §3, §4, §5

Total bacteria = assay: qPCR absolute quantification of total bacteria after in vitro rumen incubation; assay type: cell-based, rumen fluid of Hanwoo cows; settings: 0.2 mmol/L, 24 h
Description: as §1, §2, §3, §4, §5

rumen microbiota = assay: Differentially abundant genera and species in response to haloacetamide treatment; taxonomic drivers; assay type: cell-based, rumen fluid of Hanwoo cows; settings: in words
Description: Rumen fluid was sampled from Hanwoo cows at the Nonghyup Research Farm in Anseong, Gyeonggi Province, and mixed with buffer at a ratio of 1:2 within 1 hour of sampling. Oat hay was used as the forage, and pelleted feed for the middle fattening period was used as the concentrate. After grinding, the forage and concentrate were mixed at a ratio of 1:1 after passing through a 1-mm screen. 50 ml of culture medium was dispensed into 0.5 g of dry matter, and the control group and the five experimental groups (acrylamide, chloroacetamide, glycolamide, iodoacetamide, and propionamide) were each incubated for 24 hours with five replicates. […]
as §2, with “analyzed. […]” for “analyzed.”
Data conforming to normal distribution and homogeneity of variance were analyzed using the GLIMMIX procedure of SAS and Tukey's HSD test. […] Differences in the overall bacteriota and their functional profiles were analyzed using PERMANOVA. […]

[2] = in words; cited from earlier work

| Compound | Ruminococcus albus (absolute quantification, qPCR) (Ruminococcus albus) | Prevotella ruminicola (absolute quantification, qPCR) (Prevotella ruminicola) | Ruminococcus flavefaciens (absolute quantification, qPCR) [1] | Chao1 (rumen microbiome) | Evenness (rumen microbiome) | Observed features (rumen microbiome) | Shannon (rumen microbiome) | Simpson (rumen microbiome) | Fibrobacter succinogenes (absolute quantification, qPCR) (Fibrobacter succinogenes) | Total protozoa (absolute quantification, qPCR) (Total protozoa) | A:P ratio (acetate:propionate ratio) (rumen fluid) | DMD (dry matter digestibility) (rumen fluid) | NDFD (neutral detergent fiber digestibility) (rumen fluid) | NH3—N (ammonia nitrogen) (rumen fluid) | pH (rumen fluid) | Acetate (rumen fluid; VFA composition) | Butyrate (rumen fluid; VFA composition) | Isobutyrate (rumen fluid; VFA composition) [%] | Isovalerate (rumen fluid; VFA composition) | Propionate (rumen fluid; VFA composition) | other results |
| --- | --- | --- | --- | --- | --- | --- | --- | --- | --- | --- | --- | --- | --- | --- | --- | --- | --- | --- | --- | --- | --- |
| NC(=O)CO [GA, glycolamide] | 7.71^B | 9.42^C | 8.29^B | 436.4^AB | 0.8956^A | 435.6^AB | 7.8466^A | 0.9927^A | 9.36^C | 9.69 | 2.92^A | 79.40^A % | 40.82^B % | 14.76^AB mg/dL | 6.22 | 60.74^A % | 14.30^B % | 0.93 | 1.32^A % | 20.83^C % | Valerate (rumen fluid; VFA composition): 1.88^AB %; Acetate (rumen fluid; concentration): 37.24^ABC mM; Butyrate (rumen fluid; concentration): 8.74^B mM; Isobutyrate (rumen fluid; concentration): 0.57^AB mM; Isovalerate (rumen fluid; concentration): 0.80^A mM; Propionate (rumen fluid; concentration): 12.77^B mM; Total VFA (total volatile fatty acids) (rumen fluid; concentration): 61.27^AB mM; Valerate (rumen fluid; concentration): 1.15 mM; CH4 (methane production per gram of degraded dry matter) (rumen fluid): 26.85^B mL/g dDM; CH4 (methane production) (rumen fluid): 10.65^B mL; TGP (total gas production) (rumen fluid): 141.74^A mL; Total methanogen (absolute quantification, qPCR) (Total methanogen): 8.33^A; Total bacteria (absolute quantification, qPCR) (Total bacteria): 10.25^B |
| NC(=O)CI [IA, iodoacetamide] | 7.83^AB | 9.72^A | 8.51^A | 525.3^A | 0.8895^AB | 520.6^A | 8.0215^A | 0.9925^A | 9.79^A | 9.68 | 1.89^C | 76.18^B % | 47.83^A % | 13.16^B mg/dL | 6.19 | 52.09^C % | 16.51^A % | 0.76 | 1.02^C % | 27.56^A % | differentially abundant bacteria (rumen microbiota): increases bacteria belonging to the genera Fibrobacter, Pseudobutyrivibrio, and Treponema, and the species Ruminococcus flavefaciens; Valerate (rumen fluid; VFA composition): 2.06^A %; Acetate (rumen fluid; concentration): 29.92^C mM; Butyrate (rumen fluid; concentration): 9.45^AB mM; Isobutyrate (rumen fluid; concentration): 0.43^C mM; Isovalerate (rumen fluid; concentration): 0.58^B mM; Propionate (rumen fluid; concentration): 15.80^A mM; Total VFA (total volatile fatty acids) (rumen fluid; concentration): 59.25^B mM; Valerate (rumen fluid; concentration): 1.18 mM; methane-reducing effects (rumen fluid): excellent methane-reducing effects; CH4 (methane production per gram of degraded dry matter) (rumen fluid): 0.60^D mL/g dDM; CH4 (methane production) (rumen fluid): 0.23^D mL; TGP (total gas production) (rumen fluid): 129.37^B mL; Total methanogen (absolute quantification, qPCR) (Total methanogen): 7.74^B; Total bacteria (absolute quantification, qPCR) (Total bacteria): 10.38^A |
| NC(=O)CCl [CLA, 2-chloroacetamide] | 7.96^A | 9.58^B | 8.27^B | 382.3^AB | 0.8847^AB | 380.8^AB | 7.5719^AB | 0.9903^AB | 9.54^B | 9.77 | 2.34^B | 77.82^AB % | 43.61^B % | 13.90^B mg/dL | 6.19 | 55.96^B % | 16.30^A % | 0.80 | 1.09^BC % | 23.89^B % | differentially abundant bacteria (rumen microbiota): increases bacteria belonging to the genera Fibrobacter, Anaeroplasma, Treponema, and Succinivibrio, and the species Ruminococcus albus; Valerate (rumen fluid; VFA composition): 1.95^AB %; Acetate (rumen fluid; concentration): 35.41^BC mM; Butyrate (rumen fluid; concentration): 10.25^A mM; Isobutyrate (rumen fluid; concentration): 0.50^BC mM; Isovalerate (rumen fluid; concentration): 0.68^B mM; Propionate (rumen fluid; concentration): 15.07^AB mM; Total VFA (total volatile fatty acids) (rumen fluid; concentration): 63.14^AB mM; Valerate (rumen fluid; concentration): 1.22 mM; methane-reducing effects (rumen fluid): excellent methane-reducing effects; CH4 (methane production per gram of degraded dry matter) (rumen fluid): 10.71^C mL/g dDM; CH4 (methane production) (rumen fluid): 4.17^C mL; TGP (total gas production) (rumen fluid): 134.49^B mL; Total methanogen (absolute quantification, qPCR) (Total methanogen): 8.05^AB; Total bacteria (absolute quantification, qPCR) (Total bacteria): 10.28^B |
| O=[N+]([O-])OCCCO [3-NOP, 3-nitrooxypropanol] | – | – | – | – | – | – | – | – | – | – | – | – | – | – | – | – | – | – | – | – | toxicity / safety [2]: issues related to residues in the animal body and safety |
| CCC(N)=O [PA, propionamide] | 7.71^B | 9.45^C | 8.31^B | 406.2^AB | 0.8873^AB | 405.6^AB | 7.6692^A | 0.9913^AB | 9.35^C | 9.79 | 2.96^A | 78.34^AB % | 41.80^B % | 16.50^A mg/dL | 6.22 | 60.97^A % | 14.31^B % | 0.92 | 1.30^AB % | 20.64^C % | Valerate (rumen fluid; VFA composition): 1.86^AB %; Acetate (rumen fluid; concentration): 38.55^AB mM; Butyrate (rumen fluid; concentration): 9.04^AB mM; Isobutyrate (rumen fluid; concentration): 0.58^AB mM; Isovalerate (rumen fluid; concentration): 0.82^A mM; Propionate (rumen fluid; concentration): 13.04^B mM; Total VFA (total volatile fatty acids) (rumen fluid; concentration): 63.20^AB mM; Valerate (rumen fluid; concentration): 1.17 mM; CH4 (methane production per gram of degraded dry matter) (rumen fluid): 28.32^AB mL/g dDM; CH4 (methane production) (rumen fluid): 11.09^AB mL; TGP (total gas production) (rumen fluid): 143.63^A mL; Total methanogen (absolute quantification, qPCR) (Total methanogen): 8.42^A; Total bacteria (absolute quantification, qPCR) (Total bacteria): 10.27^B |
| C=CC(N)=O [AA, acrylamide] | 7.77^B | 9.44^C | 8.31^B | 284.8^B | 0.8823^B | 284.8^B | 7.1896^B | 0.9883^B | 9.39^C | 9.78 | 3.03^A | 78.14^AB % | 42.04^B % | 16.61^A mg/dL | 6.21 | 61.85^A % | 13.87^B % | 0.88 | 1.23^ABC % | 20.42^C % | Valerate (rumen fluid; VFA composition): 1.76^B %; Acetate (rumen fluid; concentration): 43.81^A mM; Butyrate (rumen fluid; concentration): 9.82^AB mM; Isobutyrate (rumen fluid; concentration): 0.62^A mM; Isovalerate (rumen fluid; concentration): 0.87^A mM; Propionate (rumen fluid; concentration): 14.45^AB mM; Total VFA (total volatile fatty acids) (rumen fluid; concentration): 70.82^A mM; Valerate (rumen fluid; concentration): 1.24 mM; CH4 (methane production per gram of degraded dry matter) (rumen fluid): 29.06^A mL/g dDM; CH4 (methane production) (rumen fluid): 11.35^A mL; TGP (total gas production) (rumen fluid): 145.83^A mL; Total methanogen (absolute quantification, qPCR) (Total methanogen): 8.38^A; Total bacteria (absolute quantification, qPCR) (Total bacteria): 10.30^AB |
| BrC(Br)Br [bromoform] | – | – | – | – | – | – | – | – | – | – | – | – | – | – | – | – | – | – | – | – | toxicity / safety [2]: carcinogenic substance |
